tested on: Aβ42 levels in the extracellular medium; experiment: FRET (HTRF) assay, Aβ42 level of the extracellular medium of SH-SY5Y-APP cells; assay type: cell-based; details: Homo sapiens, concentration at which reduction of Aβ42 level was half of the maximum reduction, read-out: Ab42 Potency
Procedure: Compounds were evaluated for activity in modulating Aβ42 and Aβ40 levels in the extracellular medium using a homogeneous time-resolved fluorescence (HTRF) assay as follows.
For the HTRF assay, either 5 or 10 μl of supernatant from treated cells was added to 10 or 15 μl of labeled antibody pairs, for a total volume of 20 μl, and incubated for 20-24 hours at 4° C. The labeled antibody pairs were either 8000 pg B436-XL665 and 400 pg B113 Europium, for assessing Aβ40 levels, or 8000 pg B436-XL665 and 400 pg A387 Europium, for assessing Aβ42 levels, diluted in 50 mM NaPO4, 0.2% BSA, 0.5M KF, pH 7. The fluorescence was read on a BMG Rubystar at 620 nm and 665 nm.

EC50 [nM]	Structure (SMILES)
1100 to 5000	Clc1cc(Cl)c(Nc2nc(-c3ccc(-n4ccnc4)cc3)cs2)c(Cl)c1 [Compound 213]
1100 to 5000	COc1ccc(-c2csc(Nc3ccc(Cl)cc3)n2)c(OC)c1 [Compound 150]
200 to 1000	Cc1cn(-c2ccc(-c3nc(Nc4cc(C)c(C)cc4C)sc3C)cc2)cn1 [Compound 242]
10100 to 30000	COc1cc(Nc2nc(-c3ccc(OC(F)F)cc3)cs2)cc(OC)c1OC [Compound 109]
200 to 1000	CCN(CCOC)c1ccc(Nc2nc(-c3ccc(-n4cnc(C)c4)cc3)cs2)c(C)c1 [Compound 231]
< 200	COc1ccc(C)c(Nc2nc(-c3ccc(-n4cnc(C)c4)cc3)cs2)c1 [Compound 352]
< 200	COc1cc(C)c(Nc2nc(-c3ccc(-n4ccnc4)nc3)cs2)cc1C(C)C [Compound 319]
200 to 1000	CSc1cccc(Nc2nc(-c3ccc(-n4ccnc4)cc3)cs2)c1 [Compound 144]
5100 to 10000	CCc1ccc(C)nc1Nc1ccc(Nc2nc(-c3ccc(-n4ccnc4)cc3)cs2)c(C)c1 [Compound 209]
< 200	CCN(CC)c1ccc(F)c(Nc2nc(-c3ccc(-n4cnc(C)c4)cc3)cs2)c1 [Compound 313]
5100 to 10000	CCN(CCO)c1ccc(Nc2nc(-c3ccc(-n4cnc5ccccc54)cc3)cs2)c(C)c1 [Compound 228]
200 to 1000	CCN(CC)c1ccc(Nc2nc(-c3ccc(-n4cnc(C)c4)cc3OC)cs2)c(C)c1 [Compound 190]
5100 to 10000	CN1CCC(CNc2ccc(Nc3nc(-c4ccc(-n5ccnc5)cc4)cs3)c(C(F)(F)F)c2)CC1 [Compound 216]
1100 to 5000	c1cn(-c2ccc(-c3csc(Nc4ccc5[nH]cnc5c4)n3)cc2)cn1 [Compound 156]
1100 to 5000	CNCCN(C)c1ccc(C)c(Nc2nc(-c3ccc(-n4ccnc4)cc3)cs2)c1 [Compound 258]
< 200	CCOc1cc(C)c(Nc2nc(-c3ccc(-n4ccnc4)cc3)cs2)cc1C [Compound 290]
200 to 1000	Cc1ccc(N(C)C)cc1Nc1nc(-c2ccc(-n3ccnc3)cc2)cs1 [Compound 259]
200 to 1000	Cc1ccc(-n2cccc2)cc1Nc1nc(-c2ccc(-n3cnc(Br)c3)cc2)cs1 [Compound 279]
200 to 1000	COc1ccc(-c2csc(Nc3ccc(Br)cc3)n2)c(OC)c1 [Compound 129]
5100 to 10000	COc1ccc(Nc2nc(-c3ccc(N4CCCC4)cc3)cs2)cc1OC [Compound 113]
< 200	CCN(C)c1cc(Nc2nc(-c3ccc(-n4cnc(C)c4)nc3)cs2)c(C)cc1C [Compound 336]
1100 to 5000	CCN(CC)c1ccc(Nc2nc(-c3ccc(-n4cnc(-c5ccccc5)c4)cc3)cs2)c(C)c1 [Compound 147]
1100 to 5000	NC(=O)c1ncn(-c2ccc(-c3csc(Nc4ccc(N5CCOCC5)c(Cl)c4)n3)cc2)n1 [Compound 233]
5100 to 10000	c1ccc2cc(-c3csc(Nc4ccc5[nH]cnc5c4)n3)ccc2c1 [Compound 159]
< 200	CCN(CC)c1cc(Nc2nc(-c3cnc(-n4cnc(C)c4)nc3)cs2)c(C)cc1C [Compound 343]
200 to 1000	CN1CCN(c2ccc(-c3csc(Nc4ccc5c(c4)OCO5)n3)cn2)CC1 [Compound 328]
10100 to 30000	Cc1ccc(Nc2nc(-c3ccc(N4CCN(C)CC4)cc3)cs2)cc1C [Compound 195]

EC50 [nM]	Structure (SMILES)
5100 to 10000	CSc1ccccc1Nc1nc(-c2ccc(N3CCN(C)CC3)cc2)cs1 [Compound 196]
1100 to 5000	CCN(CC)c1ccc(C)c(Nc2nc(-c3ccc(-c4ccoc4)cc3)cs2)c1 [Compound 311]
1100 to 5000	COc1ccc(-c2nc(Nc3cc(Cl)c(Cl)cc3Cl)sc2CC(=O)O)cc1 [Compound 187]
< 200	CCN(CC)c1ccc(C)c(Nc2nc(-c3ccc(-n4cnc(C)c4)nc3)cs2)c1 [Compound 270]
5100 to 10000	COc1ccc(Nc2nc(-c3ccc4c(c3)OCCO4)cs2)cc1OC [Compound 110]
1100 to 5000	Oc1ccc(-c2csc(Nc3ccc4c(c3)OCO4)n2)cc1O [Compound 111]
< 200	CCN(CC1CC1)c1cc(Nc2nc(-c3ccc(-n4cnc(C)c4)cc3)cs2)c(C)cc1C [Compound 350]
1100 to 5000	CN1CCN(c2ccc(-c3csc(Nc4ccc(OC(F)(F)F)c(Cl)c4)n3)cc2)CC1 [Compound 198]
5100 to 10000	CN(C)S(=O)(=O)c1ccc(-c2csc(Nc3ccc(Cl)cc3)n2)cc1 [Compound 149]
1100 to 5000	CC(C)N(c1ccccc1)c1ccc(Nc2nc(-c3ccc(-n4ccnc4)cc3)cs2)cc1 [Compound 146]
1100 to 5000	Cc1ccc(C(C)C)cc1Nc1nc(-c2ccc(-n3ccnc3)nc2)cs1 [Compound 325]
1100 to 5000	COc1ccc(-c2csc(Nc3cccc4[nH]ncc34)n2)c(OC)c1 [Compound 171]
1100 to 5000	Cc1cn(-c2ccc(-c3csc(Nc4c(Cl)cc(Cl)cc4Cl)n3)cc2)cn1 [Compound 238]
< 200	Cc1ccc(N(C)CC2CC2)cc1Nc1nc(-c2ccc(-n3ccnc3)cc2)cs1 [Compound 304]
5100 to 10000	Oc1ccc(Nc2nc(-c3ccc4ccccc4c3)cs2)cc1 [Compound 124]
10100 to 30000	Clc1cccc(Nc2nc(-c3ccc4c(c3)OCO4)cs2)c1 [Compound 154]
< 200	CCCN(CC)c1ccc(C)c(Nc2nc(-c3ccc(-n4cnc(C)c4)nc3)cs2)c1 [Compound 284]
200 to 1000	Cc1cc(C)c(Nc2nc(-c3ccc(-n4cnc(C)c4)cc3)cs2)c(C)c1 [Compound 250]
200 to 1000	CN1CCN(c2ccc(-c3csc(Nc4ccc(Cl)c(Cl)c4)n3)cc2)CC1 [Compound 139]
10100 to 30000	CN(C)S(=O)(=O)c1ccc(-c2csc(Nc3ccc4[nH]cnc4c3)n2)cc1 [Compound 157]
1100 to 5000	FC(F)(F)c1cc(N2CC=CC2)ccc1Nc1nc(-c2ccc(-n3ccnc3)cc2)cs1 [Compound 221]
10100 to 30000	CCN(CC)c1ccc(-c2csc(Nc3ccc(O)cc3)n2)cc1 [Compound 123]
1100 to 5000	Cc1ccc(NCC2CCN(C)CC2)cc1Nc1nc(-c2ccc(-n3ccnc3)cc2)cs1 [Compound 256]
< 200	CCN(CC)c1ccc(F)c(Nc2nc(-c3ccc(-n4cnc(C)c4)nc3)cs2)c1 [Compound 314]
1100 to 5000	CN1CCN(c2ccc(-c3csc(Nc4ccc(I)cc4)n3)cc2)CC1 [Compound 126]
10100 to 30000	Clc1cccc(Nc2nc(-c3ccc(-n4ccnc4)cc3)cs2)c1 [Compound 152]
< 200	Cc1ccc(C)c(Nc2nc(-c3ccc(-n4cnc(C)c4)cc3)cs2)c1 [Compound 303]

EC50 [nM]	Structure (SMILES)
200 to 1000	Cc1cn(-c2ccc(-c3csc(Nc4cc(CO)ccc4C)n3)cn2)cn1 [Compound 300]
1100 to 5000	CCN(CC)c1ccc(-c2csc(Nc3ccc(OC)cc3OC)n2)cc1 [Compound 122]
1100 to 5000	CN1CCN(c2ccc(-c3csc(Nc4ccc(Cl)c(Cl)c4)n3)cn2)CC1 [Compound 330]
200 to 1000	Cc1cn(-c2ccc(-c3csc(Nc4cc(C)c(C)cc4C)n3)cc2)cn1 [Compound 235]
< 200	CCN(CC)c1cc(C)c(Nc2nc(-c3ccc(-n4ccnc4)cc3)cs2)cc1C [Compound 292]
< 200	COc1cc(C)c(Nc2nc(-c3ccc(-n4ccnc4)cc3)cs2)cc1C(C)C [Compound 294]
10100 to 30000	COc1cc(Nc2nc(-c3ccc(O)c(O)c3)cs2)cc(OC)c1OC [Compound 112]
200 to 1000	Cc1cc(C)c(Nc2nc(-c3ccc(-n4cnc(Br)c4)cc3)cs2)cc1C [Compound 236]
< 200	Cc1ccc(C(C)C)cc1Nc1nc(-c2ccc(-n3ccnc3)cc2)cs1 [Compound 324]
5100 to 10000	Cc1cn(-c2ccc(-c3csc(Nc4ccc(N5CCOCC5)c(Cl)c4)n3)c(C(F)(F)F)c2)cn1 [Compound 229]
1100 to 5000	COc1ccc(-c2csc(Nc3ccc4c(c3)OCO4)n2)c(OC)c1 [Compound 104]
200 to 1000	COc1cc(-n2cnc(C)c2)ccc1-c1csc(Nc2cc(C)c(C)cc2C)n1 [Compound 263]
< 200	COc1cc(C)c(Nc2nc(-c3ccc(-n4cnc(C)c4)c(F)c3)cs2)cc1C(C)C [Compound 310]
< 200	CCN(C)c1cc(Nc2nc(-c3ccc(-n4cnc(C)c4)cc3)cs2)c(C)cc1C [Compound 335]
1100 to 5000	CN1CCN(c2ccc(-c3csc(Nc4ccc5c(c4)OCO5)n3)cc2)CC1 [Compound 115]
< 200	Cc1cn(-c2ccc(-c3csc(Nc4cc(N(C)CC5CC5)ccc4C)n3)cc2)cn1 [Compound 305]
1100 to 5000	CN1CCN(c2ccc(-c3csc(Nc4ccc5ccccc5c4)n3)cc2)CC1 [Compound 127]
< 200	Cc1cn(-c2ccc(-c3csc(Nc4cc(C)c(OCC5CC5)cc4C)n3)cc2)cn1 [Compound 280]
5100 to 10000	CCCN(c1ccc2c(c1)OCO2)c1nc(-c2ccc(N3CCN(C)CC3)cc2)cs1 [Compound 163]
10100 to 30000	CCOc1ccc(Nc2nc(-c3ccc(N4CCN(C)CC4)cc3)cs2)cc1 [Compound 136]
< 200	Cc1cn(-c2ccc(-c3csc(Nc4cc(N(C)CC5CC5)ccc4C)n3)cn2)cn1 [Compound 306]
1100 to 5000	CCN(CC)c1ccc(Nc2nc(-c3ccc(-n4ccnc4C)cc3)cs2)c(C)c1 [Compound 189]
200 to 1000	Cc1cn(-c2ccc(-c3csc(Nc4cc(C)c(C)cc4C)n3)cn2)cn1 [Compound 262]
10100 to 30000	CCN(CC)c1ccc(-c2csc(Nc3ccc4[nH]cnc4c3)n2)cc1 [Compound 158]
< 200	CCN(CC)c1ccc(Nc2nc(-c3ccc(-n4cnc(C)c4)nc3)cs2)c(C)c1 [Compound 247]

Structure (SMILES)	EC50 [nM]
COc1ccc(-c2csc(Nc3ccc(N(C)C)cc3)n2)c(OC)c1 [Compound 114]	200 to 1000
